Experiment: Combination of the free target ligand of Formula II (GSK-1070916) with JQ1 (FIG. 3)
Settings: GSK-1070916 combined with JQ1; FIG. 3 legend, no model or method printed

## CCn1cc(-c2ccnc3[nH]c(-c4cccc(CN(C)C)c4)cc23)c(-c2ccc(NC(=O)N(C)C)cc2)n1 [GSK-1070916]
  effect of combination with JQ1: synergistic effect

Source: patent US20220218831A1, “DEGRADATION OF AURORA KINASE (AURK) BY CONJUGATION OF AURK INHIBITORS WITH E3 LIGASE LIGAND” (Nemucore Medical Innovations, Inc., priority 2019, published 2022)
